# Data: US8729088B2, “Toll-like receptor modulators and treatment of diseases” (The Regents of the University of California, priority 2009, dated 2014)
# What was measured:
# C57BL/6 mice [1] = assay: Thioglycolate induced peritonitis (peritoneal neutrophil infiltration); conditions: for cell infiltration, particularly neutrophil, to the peritoneal cavity: three days
# Description: Peritoneal cells were collected four hours after TG injection. Total cells were counted by haematocytometer and neutrophils were morphologically identified.
# 4 hours post TG injection total peritoneal cells were harvested and counted. Neutrophils were identified morphologically and counted.
# One day after the last treatment, mice received intraperitoneal injection of 2 ml thioglycollate medium. […] Three hours after the thioglycollate injection, neutrophil infiltration to the peritoneum was evaluated.
# C57BL/6 mice [2] = assay: MOG induced experimental autoimmune encephalomyelitis (EAE)
# Description: The effect of compound (8) on experimental autoimmune encephalomyelitis (EAE) was determined using C57BL/6 mice treated with myelin oligodendrocyte glycoprotein (MOG).
# Treatment with MOG (or MOG peptides) may be used to induce EAE. Mice were treated with MOG protein for 6 days. On day 6 and onward (see FIG. 8), 50 nmoles of compound (8) or PBS were intravenously (i.v.) injected everyday. EAE clinical scores were used as a clinical metric for demyelination and were determined visually.
# MOG protein was also used to evaluate potential adverse effect of various TLR7 conjugates, as described above. Evaluation of the results were by observation of various symptoms associated with MOG induced EAE (e.g., brain inflammation, demyelination of neurons and the like).
# [3] = 50 nmoles i.v. for three days before thioglycolate
smiles,measurement,setting,value
"COCCOc1nc(N)c2nc(O)n(Cc3ccc(C(=O)NCCOCCOCCOCCOCCOCCOCCOCCOCCOCCOCCn4cc(CCC(=O)O)nn4)cc3)c2n1 [Compound 8, 3-(1-(1-(4-((6-amino-8-hydroxy-2-(2-methoxyethoxy)-9H-purin-9-yl)methyl)phenyl)-1-oxo-5,8,11,14,17,20,23,26,29,32-decaoxa-2-azatetratriacontan-34-yl)-1H-1,2,3-triazol-4-yl)propanoic acid]",neutrophils recruited to the peritoneum,C57BL/6 mice [1]; [3],reduction
same,total cells recruited to the peritoneum,C57BL/6 mice [1]; [3],reduction
same,adverse reaction compared to TG,"C57BL/6 mice [1]; mouse, in vivo",no additional adverse reaction
same,"cell infiltration, particularly neutrophil, to the peritoneal cavity",C57BL/6 mice [1]; oral route,reduced cell infiltration
same,"cell infiltration, particularly neutrophil, to the peritoneal cavity",C57BL/6 mice [1]; systemic (intravenous) route,reduced cell infiltration
same,EAE clinical score / severity of symptoms,"C57BL/6 mice [2]; 50 nmoles i.v. every day from day 6, days 11-17",significantly reduces the severity of EAE symptoms
same,adverse reaction,"C57BL/6 mice [2]; mouse, in vivo",no additional adverse reaction
